From the kinase profiling compilation of Christmann-Franck et al. (2016)

Legend:
Assay in all cases: KINOMEscan competition binding
Conditions in all cases: compound 10.0 µM
AKT3 (human) = AKT3 (human) (UniProt Q9Y243)
ALK (human) = ALK (human) (UniProt Q9UM73)
CSNK1E (human) = CSNK1E (human) (UniProt P49674)
DAPK2 (human) = DAPK2 (human) (UniProt Q9UIK4)
DAPK3 (human) = DAPK3 (human) (UniProt O43293)
DCLK1 (human) = DCLK1 (human) (UniProt O15075)
DCLK2 (human) = DCLK2 (human) (UniProt Q8N568)
DMPK (human) = DMPK (human) (UniProt Q09013)
EGFR (human) = EGFR (human) (UniProt P00533)
[1] = system: EGFR (human), P00533 [747-751 del / S ins]
[2] = system: EGFR (human), P00533 [752-759 del]
[3] = system: EGFR (human), P00533 [A750P; 747-749 del]
[4] = system: EGFR (human), P00533 [G719C; 746-750 del]
[5] = system: EGFR (human), P00533 [G719S]
[6] = system: EGFR (human), P00533 [L858R]
[7] = system: EGFR (human), P00533 [P753S; 747-752 del]
FER (human) = FER (human) (UniProt P16591)
GAK (human) = GAK (human) (UniProt O14976)
INSR (human) = INSR (human) (UniProt P06213)
INSRR (human) = INSRR (human) (UniProt P14616)
MYLK (human) = MYLK (human) (UniProt Q15746)
MYLK (human), sequence (Q15746 whole entry, looked up): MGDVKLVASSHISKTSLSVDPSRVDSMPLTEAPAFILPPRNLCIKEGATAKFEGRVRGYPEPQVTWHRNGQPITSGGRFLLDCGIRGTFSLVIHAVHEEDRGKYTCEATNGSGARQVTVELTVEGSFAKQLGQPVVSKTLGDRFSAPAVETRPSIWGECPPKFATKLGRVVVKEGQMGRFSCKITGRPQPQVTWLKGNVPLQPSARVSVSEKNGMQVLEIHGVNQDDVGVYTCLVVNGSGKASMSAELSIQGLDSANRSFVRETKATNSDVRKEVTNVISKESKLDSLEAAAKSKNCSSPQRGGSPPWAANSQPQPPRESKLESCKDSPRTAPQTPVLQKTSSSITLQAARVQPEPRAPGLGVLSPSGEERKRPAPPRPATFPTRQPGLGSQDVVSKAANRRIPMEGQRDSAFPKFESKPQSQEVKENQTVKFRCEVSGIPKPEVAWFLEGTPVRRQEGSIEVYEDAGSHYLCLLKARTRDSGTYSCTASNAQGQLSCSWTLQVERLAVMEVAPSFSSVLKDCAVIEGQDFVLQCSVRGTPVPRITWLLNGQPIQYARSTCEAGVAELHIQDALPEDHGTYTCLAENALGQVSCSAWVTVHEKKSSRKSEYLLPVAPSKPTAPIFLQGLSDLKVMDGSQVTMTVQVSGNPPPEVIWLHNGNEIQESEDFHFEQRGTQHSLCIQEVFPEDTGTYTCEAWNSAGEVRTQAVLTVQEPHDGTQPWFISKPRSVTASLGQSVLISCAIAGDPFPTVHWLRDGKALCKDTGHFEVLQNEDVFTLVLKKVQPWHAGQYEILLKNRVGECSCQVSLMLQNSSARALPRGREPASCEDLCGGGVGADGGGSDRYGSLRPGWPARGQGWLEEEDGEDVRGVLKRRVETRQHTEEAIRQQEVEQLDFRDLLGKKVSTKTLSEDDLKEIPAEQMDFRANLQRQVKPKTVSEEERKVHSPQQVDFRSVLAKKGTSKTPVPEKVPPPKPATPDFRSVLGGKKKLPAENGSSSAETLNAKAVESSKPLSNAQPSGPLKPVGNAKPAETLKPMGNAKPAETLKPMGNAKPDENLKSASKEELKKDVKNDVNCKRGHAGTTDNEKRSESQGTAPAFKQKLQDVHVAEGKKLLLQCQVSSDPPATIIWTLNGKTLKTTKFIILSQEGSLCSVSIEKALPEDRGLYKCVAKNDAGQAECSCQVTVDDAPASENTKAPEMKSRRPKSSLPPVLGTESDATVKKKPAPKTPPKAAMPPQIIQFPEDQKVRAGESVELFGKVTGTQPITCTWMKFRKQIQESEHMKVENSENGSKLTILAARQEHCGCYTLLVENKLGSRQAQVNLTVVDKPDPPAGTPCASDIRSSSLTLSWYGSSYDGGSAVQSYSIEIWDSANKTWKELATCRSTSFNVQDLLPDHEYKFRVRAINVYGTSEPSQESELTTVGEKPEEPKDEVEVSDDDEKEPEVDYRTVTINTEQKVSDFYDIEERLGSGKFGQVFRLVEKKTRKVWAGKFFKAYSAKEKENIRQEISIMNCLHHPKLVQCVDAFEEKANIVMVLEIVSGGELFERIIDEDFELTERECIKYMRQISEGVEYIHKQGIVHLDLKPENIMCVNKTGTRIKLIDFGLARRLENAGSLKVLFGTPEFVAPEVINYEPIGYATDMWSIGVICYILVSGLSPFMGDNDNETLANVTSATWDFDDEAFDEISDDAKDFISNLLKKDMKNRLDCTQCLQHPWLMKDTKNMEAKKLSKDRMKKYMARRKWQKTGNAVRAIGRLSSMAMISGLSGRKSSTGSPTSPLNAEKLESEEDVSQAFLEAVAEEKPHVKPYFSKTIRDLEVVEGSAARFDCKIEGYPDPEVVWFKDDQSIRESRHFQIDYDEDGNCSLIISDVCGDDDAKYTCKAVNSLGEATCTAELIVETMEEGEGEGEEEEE

PLK1 (human) = PLK1 (human) (UniProt P53350)
PLK3 (human) = PLK3 (human) (UniProt Q9H4B4)
PLK3 (human), sequence (Q9H4B4 whole entry, looked up): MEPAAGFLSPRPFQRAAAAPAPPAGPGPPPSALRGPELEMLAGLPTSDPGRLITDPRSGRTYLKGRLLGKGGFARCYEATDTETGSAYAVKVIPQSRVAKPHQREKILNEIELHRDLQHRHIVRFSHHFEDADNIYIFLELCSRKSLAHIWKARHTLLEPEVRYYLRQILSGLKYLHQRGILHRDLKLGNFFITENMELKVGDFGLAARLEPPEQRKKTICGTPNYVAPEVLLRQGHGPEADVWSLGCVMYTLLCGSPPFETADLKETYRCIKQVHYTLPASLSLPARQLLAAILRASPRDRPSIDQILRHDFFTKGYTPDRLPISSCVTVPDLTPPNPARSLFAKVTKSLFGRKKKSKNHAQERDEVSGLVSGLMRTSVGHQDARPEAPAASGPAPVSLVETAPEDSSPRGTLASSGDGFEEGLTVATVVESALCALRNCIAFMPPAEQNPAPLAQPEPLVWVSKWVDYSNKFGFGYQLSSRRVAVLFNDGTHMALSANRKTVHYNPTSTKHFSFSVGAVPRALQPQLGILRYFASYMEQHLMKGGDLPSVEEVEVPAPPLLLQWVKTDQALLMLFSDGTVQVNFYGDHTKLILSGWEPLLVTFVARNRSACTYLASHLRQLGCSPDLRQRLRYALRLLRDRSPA

PLK4 (human) = PLK4 (human) (UniProt O00444)
PRKD1 (human) = PRKD1 (human) (UniProt Q15139)
PTK2 (human) = PTK2 (human) (UniProt Q05397)
PTK2 (human), sequence (Q05397 whole entry, looked up): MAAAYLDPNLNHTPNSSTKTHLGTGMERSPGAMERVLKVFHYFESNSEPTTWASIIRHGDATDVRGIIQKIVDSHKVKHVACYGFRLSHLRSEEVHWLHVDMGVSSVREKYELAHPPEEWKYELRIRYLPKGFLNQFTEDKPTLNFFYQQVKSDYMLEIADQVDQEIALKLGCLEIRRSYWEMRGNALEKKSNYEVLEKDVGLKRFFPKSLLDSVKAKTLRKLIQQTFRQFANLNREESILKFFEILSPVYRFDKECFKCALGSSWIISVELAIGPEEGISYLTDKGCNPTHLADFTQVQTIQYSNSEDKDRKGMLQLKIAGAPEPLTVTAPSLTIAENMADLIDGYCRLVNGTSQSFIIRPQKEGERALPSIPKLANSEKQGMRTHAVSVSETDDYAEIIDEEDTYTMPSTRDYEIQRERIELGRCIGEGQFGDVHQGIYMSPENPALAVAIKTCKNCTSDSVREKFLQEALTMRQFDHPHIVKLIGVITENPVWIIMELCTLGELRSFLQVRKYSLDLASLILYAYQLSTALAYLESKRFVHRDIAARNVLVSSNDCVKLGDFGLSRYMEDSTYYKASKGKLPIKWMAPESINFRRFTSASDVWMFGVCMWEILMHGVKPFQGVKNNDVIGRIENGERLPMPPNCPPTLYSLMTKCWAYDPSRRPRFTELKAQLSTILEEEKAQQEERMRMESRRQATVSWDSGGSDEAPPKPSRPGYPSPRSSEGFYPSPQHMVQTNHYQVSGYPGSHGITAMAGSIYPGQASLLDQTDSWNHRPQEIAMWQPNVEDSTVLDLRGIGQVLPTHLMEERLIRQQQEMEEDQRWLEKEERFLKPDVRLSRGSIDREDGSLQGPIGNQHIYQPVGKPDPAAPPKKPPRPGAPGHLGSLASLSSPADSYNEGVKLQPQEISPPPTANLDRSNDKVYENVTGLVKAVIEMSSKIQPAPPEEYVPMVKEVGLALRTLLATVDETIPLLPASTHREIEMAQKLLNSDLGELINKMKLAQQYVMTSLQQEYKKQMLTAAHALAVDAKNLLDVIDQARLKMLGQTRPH

PTK2B (human) = PTK2B (human) (UniProt Q14289)
ROS1 (human) = ROS1 (human) (UniProt P08922)
RPS6KA1 KD2 (human) = RPS6KA1 KD2 (human) (UniProt Q15418)
RPS6KA2 KD2 (human) = RPS6KA2 KD2 (human) (UniProt Q15349)
RPS6KA6 KD2 (human) = RPS6KA6 KD2 (human) (UniProt Q9UK32)
STK33 (human) = STK33 (human) (UniProt Q9BYT3)
STK4 (human) = STK4 (human) (UniProt Q13043)
TNK1 (human) = TNK1 (human) (UniProt Q13470)
TTK (human) = TTK (human) (UniProt P33981)
TTK (human), sequence (P33981 whole entry, looked up): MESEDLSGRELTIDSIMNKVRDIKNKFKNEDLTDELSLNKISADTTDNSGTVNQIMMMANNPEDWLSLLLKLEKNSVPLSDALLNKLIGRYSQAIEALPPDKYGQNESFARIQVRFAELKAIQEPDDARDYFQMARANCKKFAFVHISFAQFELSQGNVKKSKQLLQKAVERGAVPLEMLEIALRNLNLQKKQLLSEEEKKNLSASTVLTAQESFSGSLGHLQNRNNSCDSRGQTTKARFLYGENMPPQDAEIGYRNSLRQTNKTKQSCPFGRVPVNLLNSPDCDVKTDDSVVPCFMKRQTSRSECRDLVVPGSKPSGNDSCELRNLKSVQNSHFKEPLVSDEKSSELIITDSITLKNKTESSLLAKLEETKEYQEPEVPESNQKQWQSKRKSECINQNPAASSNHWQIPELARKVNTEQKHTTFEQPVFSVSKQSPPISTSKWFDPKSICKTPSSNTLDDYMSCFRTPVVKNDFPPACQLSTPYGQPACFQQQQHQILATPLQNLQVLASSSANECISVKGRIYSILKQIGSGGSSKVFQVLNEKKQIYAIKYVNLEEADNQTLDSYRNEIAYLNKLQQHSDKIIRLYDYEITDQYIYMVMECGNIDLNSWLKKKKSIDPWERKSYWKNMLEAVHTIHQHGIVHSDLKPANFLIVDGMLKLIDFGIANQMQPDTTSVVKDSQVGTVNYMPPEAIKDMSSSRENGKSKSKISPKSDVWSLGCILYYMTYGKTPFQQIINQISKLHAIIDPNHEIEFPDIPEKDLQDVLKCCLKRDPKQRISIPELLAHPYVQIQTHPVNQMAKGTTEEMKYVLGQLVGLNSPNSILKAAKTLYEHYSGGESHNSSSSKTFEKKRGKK

ULK2 (human) = ULK2 (human) (UniProt Q8IYT8)

DAPK2 (human), sequence (Q9UIK4 whole entry, looked up): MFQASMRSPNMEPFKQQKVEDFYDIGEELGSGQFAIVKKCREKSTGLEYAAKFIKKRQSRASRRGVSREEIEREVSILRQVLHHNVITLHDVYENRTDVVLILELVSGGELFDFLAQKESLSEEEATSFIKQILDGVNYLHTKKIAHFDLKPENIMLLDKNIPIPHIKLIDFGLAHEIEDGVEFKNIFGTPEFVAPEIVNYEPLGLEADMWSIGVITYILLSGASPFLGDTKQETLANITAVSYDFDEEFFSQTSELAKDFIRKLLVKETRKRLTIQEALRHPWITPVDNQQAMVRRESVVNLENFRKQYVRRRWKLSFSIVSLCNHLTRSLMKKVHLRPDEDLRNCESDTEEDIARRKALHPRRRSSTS

With `COc1cc(N2CCN(CCO)CC2)ccc1Nc1ncc2c(n1)N(C1CCCC1)CCC(=O)N2C` the kinase still bound, per cent of control (AKT3 (human)) was 0%, the kinase still bound, per cent of control (ALK (human)) was 11% and the kinase still bound, per cent of control (CSNK1E (human)) was 0%. For the same compound, the kinase still bound, per cent of control (DAPK2 (human)) was 32%, the kinase still bound, per cent of control (DAPK3 (human)) was 28% and the kinase still bound, per cent of control (DCLK1 (human)) was 4.2%. For the same compound, the kinase still bound, per cent of control (DCLK2 (human)) was 14%, the kinase still bound, per cent of control (DMPK (human)) was 0% and the kinase still bound, per cent of control (EGFR (human)) was 29%. It also gave a kinase still bound, per cent of control [1] of 20%, a kinase still bound, per cent of control [2] of 23% and a kinase still bound, per cent of control [3] of 18%. For the same compound, the kinase still bound, per cent of control [4] was 28%, the kinase still bound, per cent of control [5] was 31% and the kinase still bound, per cent of control [6] was 31%. It also gave a kinase still bound, per cent of control [7] of 24%, a kinase still bound, per cent of control (FER (human)) of 24% and a kinase still bound, per cent of control (GAK (human)) of 1.4%. For the same compound, the kinase still bound, per cent of control (INSR (human)) was 30%, the kinase still bound, per cent of control (INSRR (human)) was 32% and the kinase still bound, per cent of control (MYLK (human)) was 14%. It also gave a kinase still bound, per cent of control (PLK1 (human)) of 0%, a kinase still bound, per cent of control (PLK3 (human)) of 12% and a kinase still bound, per cent of control (PLK4 (human)) of 9.4%. For the same compound, the kinase still bound, per cent of control (PRKD1 (human)) was 29%, the kinase still bound, per cent of control (PTK2 (human)) was 3.4% and the kinase still bound, per cent of control (PTK2B (human)) was 13%. It also gave a kinase still bound, per cent of control (ROS1 (human)) of 0%, a kinase still bound, per cent of control (RPS6KA1 KD2 (human)) of 32% and a kinase still bound, per cent of control (RPS6KA2 KD2 (human)) of 16%. The kinase still bound, per cent of control (RPS6KA6 KD2 (human)) was 20%, the kinase still bound, per cent of control (STK33 (human)) was 7.2% and the kinase still bound, per cent of control (STK4 (human)) was 0%. The kinase still bound, per cent of control (TNK1 (human)) was 20%, the kinase still bound, per cent of control (TTK (human)) was 1.8% and the kinase still bound, per cent of control (ULK2 (human)) was 2%.
